Some test systems named below: LOX IMVI melanoma; EKVX NSCLC; SK-MEL-2 melanoma; MCF7 breast; NCI-H460 lung; HOP-92 NSCLC; HCC-2998 colon; SNB-75 CNS.
Assay in all cases: NCI tumour cell line growth inhibition, 48 h

Several values for one entry are separate records, joined by “and”; a condition that tells them apart may be missing. Equal values may be shown once.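 Compound exposure: 48 hours, 5 concentrations, 96-well plates. GI50 marks 50% less growth. TGI marks complete inhibition of growth.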 A value given as a limit tells only on which side of the number the result lay.

On to `C[C@@]1([C@H](OC(=O)c2cccc3ccccc23)C(N)=O)CO1`, for which the GI50 was 316 nM with LOX IMVI melanoma; 4530 nM in the assay with EKVX NSCLC; 1120 nM in the assay with SK-MEL-2 melanoma; 1240 nM in the assay on MCF7 breast; 5500 nM with NCI-H460 lung; 2810 nM with HOP-92 NSCLC. Also, the figures for the GI50 with HCC-2998 colon and in the assay with SNB-75 CNS were 4510 nM and 5900 nM, respectively. Also, the TGI was 1620 nM in the assay on LOX IMVI melanoma; 15700 nM in the assay with EKVX NSCLC; 7090 nM with SK-MEL-2 melanoma; more than 100000 nM in the assay on MCF7 breast; more than 30100 nM with NCI-H460 lung; 17300 nM in the assay with HOP-92 NSCLC. In addition, the TGI worked out at 18200 nM in the assay with HCC-2998 colon and 37100 nM in the assay on SNB-75 CNS.
`CCCCCCCC(=O)SCC/C=C/[C@@H]1CC(=O)NCc2cccc(n2)C2=N[C@@](C)(CS2)C(=O)N[C@@H](C(C)C)C(=O)O1`: the GI50 is 50.1 nM in the assay on LOX IMVI melanoma; 86.9 nM in the assay on EKVX NSCLC; 36.9 nM in the assay with SK-MEL-2 melanoma; 82.7 nM with MCF7 breast; 16.7 nM in the assay with NCI-H460 lung; 84.1 nM in the assay with HOP-92 NSCLC. The results for the GI50 in the assay with HCC-2998 colon and in the assay on SNB-75 CNS were 52.8 nM and 29 nM, respectively. Moreover, the TGI in the assay on LOX IMVI melanoma was 193 nM; in the assay on EKVX NSCLC, more than 33300 nM; with SK-MEL-2 melanoma, 881 nM; in the assay with MCF7 breast, more than 33300 nM; with NCI-H460 lung, more than 33300 nM; in the assay with HOP-92 NSCLC, 520 nM. Moreover, the TGI with HCC-2998 colon was 324 nM; in the assay on SNB-75 CNS it was more than 33300 nM.
As for `CCC1CCC2C3CC=C4CC(OC(C)=O)C(N)CC4(C)C3CCC12C` (configuration not stated), the TGI came to 4120 nM in the assay on LOX IMVI melanoma; 13800 nM with EKVX NSCLC; 8320 nM with SK-MEL-2 melanoma; 14000 nM in the assay on MCF7 breast; 3530 nM in the assay on NCI-H460 lung; 10800 nM in the assay on HOP-92 NSCLC. Moreover, the TGI with HCC-2998 colon turned out to be 3060 nM; in the assay with SNB-75 CNS it was 5510 nM.
For the molecule `O=c1[nH]ccc2nc(N3CCC(O)CC3)nc(Nc3ccc(N4CCOCC4)cc3)c12`, the GI50 with LOX IMVI melanoma was 1380 nM; in the assay with EKVX NSCLC it was more than 38300 nM; in the assay on SK-MEL-2 melanoma, 2270 nM; with MCF7 breast, 4450 nM; with NCI-H460 lung, 2380 nM; with HOP-92 NSCLC, 566 nM. Moreover, the GI50 in the assay on SNB-75 CNS was 2390 nM. Besides, the TGI was more than 100000 nM in the assay on LOX IMVI melanoma; more than 100000 nM in the assay on EKVX NSCLC; more than 100000 nM in the assay with SK-MEL-2 melanoma; more than 100000 nM in the assay with MCF7 breast; more than 100000 nM with NCI-H460 lung; 5020 nM in the assay with HOP-92 NSCLC. Also, the TGI with HCC-2998 colon is more than 81200 nM; in the assay on SNB-75 CNS it was 12100 nM.
As to `COc1cc(/C=C/C(=O)c2ccc(F)cc2)ccc1OCCCCOc1cc2c(cc1OC)C(=O)N1CCCC1C=N2` (configuration not stated), the GI50 with LOX IMVI melanoma was 472 nM; in the assay with EKVX NSCLC, 4050 nM; in the assay with SK-MEL-2 melanoma, 1330 nM; in the assay on MCF7 breast it was 318 nM; in the assay on NCI-H460 lung it was 830 nM; with HCC-2998 colon, 674 nM. Besides, the GI50 with SNB-75 CNS is 994 nM. For the same molecule, the TGI in the assay with LOX IMVI melanoma is 1110 nM; in the assay with EKVX NSCLC it was more than 34900 nM; with SK-MEL-2 melanoma it was 12800 nM; with MCF7 breast, 6120 nM; with NCI-H460 lung, 6670 nM; with HOP-92 NSCLC, 673 nM. Besides, the TGI in the assay with HCC-2998 colon was determined as 9610 nM; with SNB-75 CNS, 15000 nM.
Turning to `O=c1ncc(I)c[nH]1`, the GI50 with LOX IMVI melanoma, in the assay on EKVX NSCLC, with SK-MEL-2 melanoma, with MCF7 breast, in the assay on NCI-H460 lung and in the assay on HOP-92 NSCLC was more than 100000 nM each time. The GI50 with HCC-2998 colon and in the assay with SNB-75 CNS was more than 100000 nM in each case. For the same molecule, the TGI in the assay with LOX IMVI melanoma, in the assay with EKVX NSCLC, in the assay on SK-MEL-2 melanoma, in the assay on MCF7 breast, with NCI-H460 lung and in the assay with HOP-92 NSCLC was more than 100000 nM each time. Moreover, the TGI in the assay with HCC-2998 colon and with SNB-75 CNS was more than 100000 nM each time.
As for `CC(C)C[C@H](NC(=O)[C@H](Cc1ccccc1)NC(=O)c1cnccn1)B(O)O`, the GI50 was 1.35 nM in the assay with LOX IMVI melanoma; < 17.5 nM and 4.19 nM with EKVX NSCLC; 1.72 nM in the assay with SK-MEL-2 melanoma; 1.3 nM in the assay with MCF7 breast; 18.3 nM and 4.68 nM in the assay with NCI-H460 lung; 1.5 nM in the assay with HOP-92 NSCLC. For the same molecule, the GI50 is 0.597 nM in the assay with HCC-2998 colon and 2.32 nM in the assay on SNB-75 CNS. Also, the TGI was < 12.9 nM and 4.13 nM in the assay on LOX IMVI melanoma; 2060 nM and 417 nM and 2330 nM in the assay on EKVX NSCLC; < 22.3 nM and 10.1 nM with SK-MEL-2 melanoma; 121 nM and 39.7 nM and 150 nM with NCI-H460 lung; 19.6 nM and 7.23 nM with HOP-92 NSCLC; 26.6 nM and 6.98 nM with SNB-75 CNS.
Take `CCN(CC)c1ccc(CNc2cc(C)nc3ccc(OC)cc23)cc1`: the GI50 in the assay with LOX IMVI melanoma was 1670 nM; in the assay on EKVX NSCLC it was 3140 nM; with SK-MEL-2 melanoma it was 1830 nM; with MCF7 breast it was 1700 nM; in the assay on NCI-H460 lung, 1970 nM; in the assay with HOP-92 NSCLC, 2000 nM. Further, the GI50 in the assay on HCC-2998 colon was 1770 nM; in the assay with SNB-75 CNS it was 2040 nM. In addition, the TGI with LOX IMVI melanoma amounted to 3470 nM; in the assay on EKVX NSCLC, 15300 nM; in the assay on SK-MEL-2 melanoma, 3560 nM; in the assay on MCF7 breast it was 3530 nM; with NCI-H460 lung, 4330 nM; in the assay on HOP-92 NSCLC, 6260 nM. In addition, the TGI in the assay on HCC-2998 colon was 3320 nM; in the assay on SNB-75 CNS, 5050 nM.
Regarding `Oc1ccccc1/C=N/Nc1nc2ccccc2s1`, the GI50 is 4300 nM in the assay with LOX IMVI melanoma; 8730 nM in the assay with EKVX NSCLC; 8740 nM in the assay on SK-MEL-2 melanoma; 1160 nM in the assay on MCF7 breast; 3410 nM in the assay on NCI-H460 lung; 740 nM in the assay on HOP-92 NSCLC. In addition, the GI50 is 5370 nM with HCC-2998 colon and 6550 nM in the assay with SNB-75 CNS. Further, the TGI in the assay with LOX IMVI melanoma was more than 100000 nM; with EKVX NSCLC, more than 100000 nM; in the assay on SK-MEL-2 melanoma, more than 100000 nM; in the assay with MCF7 breast, more than 100000 nM; in the assay on NCI-H460 lung it was more than 100000 nM; in the assay on HOP-92 NSCLC, 19500 nM. Also, the TGI was more than 100000 nM in the assay with HCC-2998 colon and 32200 nM in the assay with SNB-75 CNS.

The values are drawn from PubChem BioAssay (NCI).
